In patent publication US20220043347A1, “ACTINIC RAY-SENSITIVE OR RADIATION-SENSITIVE RESIN COMPOSITION, RESIST FILM, PATTERN FORMING METHOD, AND METHOD FOR MANUFACTURING ELECTRONIC DEVICE” (FUJIFILM Corporation, priority 2019, published 2022):

test: Acid dissociation constant (pKa) determined by computation (ACD/Labs Software Package 1; Gaussian 16 DFT where not calculable); conditions: acid generated from photoacid generator B
Description: In the present specification, an acid dissociation constant (pKa) represents a pKa in an aqueous solution, and is specifically a value determined by computation from a value based on a Hammett's substituent constant and database of publicly known literature values, using the following software package 1. Any of the pKa values described in the present specification indicate values determined by computation using the software package.
Software Package 1: Advanced Chemistry Development (ACD/Labs) Software V 8.14 for Solaris (1994-2007 ACD/Labs).
As described above, the pKa in the present specification refers to a value determined by computation from a value based on a Hammett's substituent constant and database of publicly known literature values, using the software package 1, but in a case where the pKa cannot be calculated by the method, a value obtained by Gaussian 16 based on density functional theory (DFT) shall be adopted.
In addition, the pKa in the present specification refers to a “pKa in an aqueous solution” as described above, but in a case where the pKa in an aqueous solution cannot be calculated, a “pKa in a dimethyl sulfoxide (DMSO) solution” shall be adopted.
Furthermore, in the measurement of the acid dissociation constant (pKa) of an acid generated from the photoacid generator B, specifically, the pKa is a value determined by subjecting a compound formed by substituting each cationic moiety in the compounds B-1 to B-29 with […](for example, in a case of the compound B-1, a compound formed by substituting the triphenylsulfonium cation with H^+) to computation from a value based on a Hammett's substituent constant and database of publicly known literature values, using Software Package 1 of ACD/Labs, as described above. In addition, in a case where pKa could not be calculated by the method, a value obtained by Gaussian 16 based on density functional theory (DFT) was adopted.
In the following table, “pKa1” represents an acid dissociation constant of the first stage, “pKa2” represents an acid dissociation constant of the second stage, and “pKa3” represents an acid dissociation constant of the third stage. A smaller value of pKa means a higher acidity. […]

SMILES	Difference between acid dissociation constant a1 and acid dissociation constant a2
O=C(CC(F)(F)F)[N-]S(=O)(=O)C(F)(F)C(F)(F)C(F)(F)S(=O)(=O)[O-].c1ccc([S+](c2ccccc2)c2ccccc2)cc1.c1ccc([S+](c2ccccc2)c2ccccc2)cc1 [Compound B-1]	3.17
O=C(O)C(F)(F)C(F)(F)C(F)(F)C(=O)OC12CC3CC(CC(COC(=O)C(F)(F)S(=O)(=O)O)(C3)C1)C2 [Compound B-3]	2.92
CCCCC(CC)C(=O)NS(=O)(=O)C(F)(F)C(F)(F)C(F)(F)S(=O)(=O)NS(=O)(=O)C(F)(F)F (stereo not drawn) [Compound B-12]	11.4
O=C([O-])CCCOC(=O)C(CS(=O)(=O)[O-])C(F)(F)F.O=S(=O)(c1ccc([S+](c2ccccc2)c2ccccc2)cc1)C1CCCCC1.O=S(=O)(c1ccc([S+](c2ccccc2)c2ccccc2)cc1)C1CCCCC1 [Compound B-14]	3.63
O=C(NS(=O)(=O)C(F)(F)C(F)(F)C(F)(F)S(=O)(=O)O)c1ccccc1I [Compound B-22]	2.97
CC1(OC(=O)c2cc(C(=O)NS(=O)(=O)C(F)(F)C(F)(F)C(F)(F)S(=O)(=O)NS(=O)(=O)C(F)(F)F)cc(C(=O)OC3(C)CCCC3)c2)CCCC1 [Compound B-23]	10.13

Now from value to compound:

Difference between acid dissociation constant a1 and acid dissociation constant a2	SMILES
9.59	COc1ccc([S+](c2ccccc2)c2ccccc2)cc1.COc1ccc([S+](c2ccccc2)c2ccccc2)cc1.O=S(=O)([O-])C(F)(F)C(F)(F)C(F)(F)S(=O)(=O)[N-]C1CCCCC1 [Compound B-2]
9.23	O=C(COC(=O)C(F)(F)S(=O)(=O)O)NC(=O)C(F)(F)F [Compound B-4]
2.55	CS(=O)(=O)[N-]C(=O)C(F)(F)C(F)(F)C(F)(F)C(=O)OCC(F)S(=O)(=O)[O-].c1ccc([S+](c2ccccc2)c2ccccc2)cc1.c1ccc([S+](c2ccccc2)c2ccccc2)cc1 (stereo not drawn) [Compound B-5]
4.82	COc1ccc([S+](c2ccccc2)c2ccccc2)cc1.COc1ccc([S+](c2ccccc2)c2ccccc2)cc1.O=C(OCCCS(=O)(=O)[O-])C(F)(F)S(=O)(=O)[O-] [Compound B-6]
3.23	CS(=O)(=O)NS(=O)(=O)CCCOC(=O)C(F)(F)S(=O)(=O)O [Compound B-11]
2.79	CC(C)(C#N)C(=O)[N-]S(=O)(=O)C(F)(F)C(F)(F)C(F)(F)S(=O)(=O)[N-]S(C)(=O)=O.Cc1ccc(-[s+]2c3ccccc3c3ccccc32)cc1.Cc1ccc(-[s+]2c3ccccc3c3ccccc32)cc1 [Compound B-15]
0.74	CC1(C)C2CCC1(CS(=O)(=O)[N-]S(=O)(=O)C(F)(F)C(F)(F)C(F)(F)S(=O)(=O)[O-])C(=O)C2.Cc1ccc([S+](c2ccccc2)c2ccccc2)cc1.Cc1ccc([S+](c2ccccc2)c2ccccc2)cc1 (stereo not drawn) [Compound B-16]
2.53	Cc1cc([S+](c2ccc(C(F)(F)F)cc2)c2ccc(C(F)(F)F)cc2)cc(C)c1OCC(=O)OC(C)(C)C.Cc1cc([S+](c2ccc(C(F)(F)F)cc2)c2ccc(C(F)(F)F)cc2)cc(C)c1OCC(=O)OC(C)(C)C.Cc1cc([S+](c2ccc(C(F)(F)F)cc2)c2ccc(C(F)(F)F)cc2)cc(C)c1OCC(=O)OC(C)(C)C.O=C([N-]S(=O)(=O)C(F)(F)C(F)(F)C(F)(F)S(=O)(=O)[O-])c1ccc(OS(=O)(=O)C(F)(F)C(F)(F)C(F)(F)S(=O)(=O)[O-])cc1 [Compound B-25]
4.99	CC(C)(C)OC(=O)c1cc(OS(=O)(=O)C(F)(F)S(=O)(=O)[O-])cc(C(=O)[N-]S(=O)(=O)C(F)(F)S(=O)(=O)[O-])c1.Cc1cc(C)cc([S+](c2cc(C)cc(C)c2)c2cc(C(F)(F)F)cc(C(F)(F)F)c2)c1.Cc1cc(C)cc([S+](c2cc(C)cc(C)c2)c2cc(C(F)(F)F)cc(C(F)(F)F)c2)c1.Cc1cc(C)cc([S+](c2cc(C)cc(C)c2)c2cc(C(F)(F)F)cc(C(F)(F)F)c2)c1 [Compound B-26]
